This is an account of results in US10557124B2, “Compositions and methods for obtaining stem cell derived lung tissue, and related uses thereof” (The Regents of the University of Michigan, priority 2015, dated 2020).

Assay [1] relates to anterior foregut endoderm (hESC-derived, ActivinA then NOG/SB). Kind of assay: qRT-PCR of SHH, NKX2.1, PAX8 in foregut endoderm monolayer cultures treated with FGF/HH modulators. In kind it is cell-based, human. To be noted: for SHH expression / NKX2.1 expression / PAX8 expression: vs foregut control (FGF2: vs untreated endoderm controls), FGF2 50/500 ng/mL, SU 10 μM; for NKX2.1 expression / PAX8 expression: Sant-2 10 μM; for PAX8 expression: SAG 1 μM. An excerpt:
Many signaling pathways are important for lung induction and development (see, e.g., Wong A P, et al., Nat Biotechnol. 2012 Aug. 26; Huang S X L, et al., Nature; 2013 Dec. 1; 1-11; Firth A L, et al., Proceedings of the National Academy of Sciences. 2014 Apr. 29; 111(17):E1723-30; Mou H, et al., Cell Stem Cell. 2012 Apr. 6; 10(4):385-97; Ghaedi M, et al., J. Clin. Invest. 2013 Nov. 1; 123(11):4950-62; Longmire T A, et al., Cell Stem Cell. 2012 Apr. 6; 10(4):398-411; Rankin S A, Zorn A M. Gene Regulatory Networks Governing Lung Specification. J Cell Biochem. 2014 Mar. 19; Morrisey E E, et al., Developmental Cell. Elsevier Inc; 2010 Jan. 19; 18(1):8-23; Min H, et al., Genes & Development. 1998 Oct. 15; 12(20):3156-61; Weaver M, et al., Development. 2000 June; 127(12):2695-704). […] 2011 Feb. 3; 470(7332):105-9; Wells J M, et al., Development. 2014 February; 141(4):752-60; Motoyama J, et al., Nat Genet. 1998 September; 20(1):54-7) and Hh signaling is important for lung mesenchyme proliferation in vivo (see, e.g., Bellusci S, et al., Development. 1997 January; 124(1):53-63). […] It has been reported that approximately 85-95% of cells are endoderm, but a portion of the remaining cells are mesodermal and this small mesodermal population is maintained in the spheroids and organoids (see, e.g., Spence J R, et al., Nature. 2011 Feb. 3; 470(7332):105-9; McCracken K W, et al., Nature; 2014 Oct. 29; 1-19; Green M D, et al., Nat Biotechnol.; 2011 Feb. 27; 1-7) (FIG. 4). Therefore, based on mouse and hPSC studies, it was hypothesized that FGF and/or HH signaling would induce an NKX2.1+ lung lineage in anterior foregut endoderm. To test this hypothesis experiments initially focused on adherent endoderm monolayer cultures to optimize induction conditions. Cultures were treated for 4 days with ActivinA followed by an additional 4 days with NOG/SB (referred to as Foregut). Controls consisted of ActivinA treatment only followed by no additional growth factors (Endoderm controls), or ActivinA followed by NOG/SB, followed by no additional factors (Foregut controls). All experimental groups were compared to both endoderm and foregut controls (FIG. 6). The ability of FGF2 to induce SHH, NKX2.1 and PAX8 was first tested by exposing foregut cultures to low and high concentrations of FGF2 (50,500 ng/mL) (FIG. 6A). […] It was also observed that dual NOG/SB inhibition in endoderm cultures induced robust NKX2.1 and PAX8 expression without adding FGF2 (FIG. 1B, 6A). Thus, it was desired to determine if NKX2.1 expression in foregut cultures was due to endogenous FGF and/or HH signaling. To test this, the FGF or HH pathway was inhibited with small molecules SU5402 (SU, 10 μm) and Sant-2 (10 μm) respectively (FIG. 6B-C). Treating foregut cultures with the FGF inhibitor SU caused a significant, robust reduction in PAX8 and a modest reduction in SHH, while NKX2.1 expression was unchanged compared to foregut control (FIG. 6B). […] To test if HH signaling was able to induce NKX2.1 in foregut cultures, the Smoothened agonist, SAG (1 μM), was added to foregut cultures. The addition of SAG induced a 6.5 fold increase of NKX2.1 expression above foregut controls (FIG. 6D).
This combination caused an additional increase in NKX2.1 expression (21 fold vs. 6.5 fold with SAG only, when compared to foregut) and a concomitant decrease in PAX8 mRNA (FIG. 6D).
After differentiation into definitive endoderm, foregut endoderm was differentiated, essentially as described (see, e.g., Green M D, et al., Nat Biotechnol. Nature Publishing Group; 2011 Feb. 27; 1-7). Briefly, cells were incubated in foregut media: Advanced DMEM/F12 plus N-2 and B27 supplement, 10 mM Hepes, lx L-Glutamine (200 mM), lx Penicillin-streptomycin (5,000 U/mL, all from Life Technologies) with 200 ng/mL Noggin (NOG, R&D Systems) and 10 μM SB431542 (SB, Stemgent) for 4 days. […]

The subject of assay [2] is NOG/SB/F/Ch/SAG treated foregut spheroids. Kind of assay: Expansion of foregut spheroids in Matrigel into lung organoids. It is filed as cell-based, human. To be noted: FGF10 500 ng/mL, Matrigel 3D culture. An excerpt:
NOG/SB/F/Ch/SAG treated foregut spheroids were embedded in Matrigel to provide a 3D growth environment. Spheroids maintained in basal media supplemented with 1% FBS lost ECAD+ epithelial structures and were mainly comprised of mesenchyme within 20 days of 3D culture (FIG. 9D,E). FGF10 is essential for branching morphogenesis and maintenance of lung progenitor cells during development as well as tissue homeostasis in the adult lung (see, e.g., Motoyama J, et al., Nat Genet. 1998 September; 20(1):54-7; Li Y, et al., Developmental Biology. 2004 Jun. 1; 270(1):214-31; Bellusci S, et al., Development. 1997 January; 124(1):53-63; Min H, et al., Genes & Development. 1998 Oct. 15; 12(20):3156-61; Weaver M, et al., Development. 2000 June; 127(12):2695-704; Agha El E, et al., Development. 2013 Dec. 18; Volckaert T, et al., Development 2013 September; 140(18):3731-42). It was observed that the addition of FGF10 (500 ng/mL) allowed spheroids to expand and be passaged for over 100 days. FGF10 promoted the maintenance of ECAD+ epithelial structures with less mesenchymal contributions compared to both basal and FGF inhibitor conditions (FIG. 10D). […] SOX2+ domains and SOX9+ domains were distributed throughout the entire HLO as determined by whole mount immunofluorescence and confocal Z-sections (FIG. 14). […]

On to `Cc1c[nH]c(/C=C2\C(=O)Nc3ccccc32)c1CCC(=O)O` [SU5402], for which, in assay [1] (compared to foregut controls), the GLI1 expression entry is reported as “not significantly different” and the PTCH1 expression entry is listed as “not significantly different”. In assay [1], the SHH expression result was “significant reduction”, the NKX2.1 expression entry is recorded as “not significantly different” and the PAX8 expression result is on record as “significant reduction”.
Regarding “FGF2: fibroblast growth factor 2 (R&D systems)”, in assay [1], the SHH expression result was “dose dependent increase”, the NKX2.1 expression entry was “modest increase” and the PAX8 expression result is given as “dose dependent increase”.
For the molecule Sant-2, the NKX2.1 expression result in assay [1] was “significant reduction”.

B1: FGF10: protein that belongs to the fibroblast growth factor (FGF) family (protein, UniProt O15520 38-208, looked up)
Fibroblast growth factor 10: QALGQDMVSPEATNSSSSSFSSPSSAGRHVRSYNHLQGDVRWRKLFSFTKYFLKIEKNGKVSGTKKENCPYSILEITSVEIGVVAVKAINSNYYLAMNKKGKLYGSKEFNNDCKLKERIEENGYNTYASFNWQHNGRQMYVALNGKGAPRRGQKTRRKNTSAHFLPMVVHS
As to B1, the “time spheroids could expand and be passaged” value in assay [2] is “over 100 days”.
